Columns and labels:
[1] = Particle size distribution by laser diffraction (Mastersizer 2000); format: physicochemical
Protocol: In the invention, Dpn is a unit referring to a particle size of crystal, and n is a value covering from 1 to 100. For example, Dp10 is defined as a diameter of the particle where particles are accumulated from the one having a smaller size and reach to the accumulated particle volume of 10%.
Add 1000 mL of water to 5 g of Triton X-100, mix well. Add 0.1 g of bicalutamide and sonicate for 15 minutes, the filter using 0.45 μm membrane filter and use this solution as the dispersant. Rinse the dispersion unit and the measurement instrument with the dispersant and replace it in the instruments with the fresh one, then measure background. After weighing, suspend about 0.05 g of bicalutamide crystals in the 20 ml of dispersant and sonicate for 5 minutes, and make up with the dispersant to 100 mL. Redisperse this suspension with a pipet and pour this sample into the dispersion unit so that an obscuration is 10.0 to 20.0%. After the stabilizing period of 12 minutes, start the measurement under the following condition. Determine 10% diameter, 50% diameter, and 90% diameter according to an integrated distribution curve to be Dp10, Dp50 and Dp90, respectively.
• Instrument model: Laser diffraction particle size analyzer Mastersizer 2000 (Malvern) • Dispersion unit: Hydro2000S • Stirrer speed of dispersion unit: 2300 rpm • Particle Refraction Index of sample: 1.670 Absorption: 0.001 • Dispersant Refraction Index: 1.330 • Analysis model: General purpose • Calculation sensitivity: Enhanced • Particle shape: Irregular • Size range: 0.020-2000.000 μm • Measurement integration period: 12 seconds • Backgroupd integration period: 12 seconds (Specific Surface Area)
With using the above-mentioned laser diffraction particle size distribution analyzer (Mastersizer 2000 (Malvern)), a particle size distribution was measured under the same conditions mentioned above.

[2] = Specific surface area by nitrogen gas absorption (BET equation, COULTER SA3100); format: physicochemical
Protocol: The specific surface area in the invention is defined as a surface area per 1 g of particles, and represented by a value measured by the following method.
A sample is deaerated overnight in a vacuum dryer at 40° C. as a pre-treatment before being subjected to a measurement. The measurement is conducted as follows: a given amount of an absorbing gas (nitrogen gas) is absorbed by a sample, the values of a relative pressure (P/PO) and an absorbed gas volume are determined in each absorption step, and then a specific surface area is calculated according to the BET equation using the values. COULTER™ SA3100™ Series Surface Area and Pore size Analyzer is used as a measurement device. After measuring the sample mentioned above, the specific surface area at around the relative pressure of 0.05 to 0.2 is calculated.
Furthermore, the specific surface area of the crystals obtained by one time milling was measured with the COULTER™ SA3100™ Series Surface Area and Pore size Analyzer mentioned above under the same conditions mentioned above.

[3] = crystals as obtained by crystallization, not milled
[4] = crystals obtained by one time milling (spiral jet-mill 50AS)
[5] = crystals obtained by two times milling (CT-401 ATOMIZER)

Structure (SMILES) | Dp10 (particle size) [1, 3] [μm] | Dp50 (particle size) [1, 3] [μm] | Dp90 (particle size) [1, 3] [μm] | Dp10 (particle size) [1, 4] [μm] | Dp50 (particle size) [1, 4] [μm] | Dp90 (particle size) [1, 4] [μm] | specific surface area ([2]; crystals obtained by one time milling, relative pressure 0.05 to 0.2) [m^2/g] | Dp10 (particle size) [1, 5] [μm] | Dp50 (particle size) [1, 5] [μm] | Dp90 (particle size) [1, 5] [μm] | specific surface area [2, 3] [m^2/g]
CC(O)(CS(=O)(=O)c1ccc(F)cc1)C(=O)Nc1ccc(C#N)c(C(F)(F)F)c1 (centres unmarked) [bicalutamide] | 45.6 | 90.7 | 177.6 |  |  |  |  |  |  |  | 
CC(O)(CS(=O)(=O)c1ccc(F)cc1)C(=O)Nc1ccc(C#N)c(C(F)(F)F)c1 (centres unmarked) [Example 1, bicalutamide] | 5.3 | 14.5 | 30.6 | 1.8 | 4.2 | 10.5 | 1.8 |  |  |  | 
CC(O)(CS(=O)(=O)c1ccc(F)cc1)C(=O)Nc1ccc(C#N)c(C(F)(F)F)c1 (centres unmarked) [Comparative Example 1, bicalutamide] | 45.6 | 90.7 | 177.6 |  |  |  |  | 3.1 | 15.9 | 57.8 | 
CC(O)(CS(=O)(=O)c1ccc(F)cc1)C(=O)Nc1ccc(C#N)c(C(F)(F)F)c1 (centres unmarked) [Comparative Example 2, bicalutamide] | 39.5 | 119.6 | 273.1 |  |  |  |  |  |  |  | 0.2

— patent US7632971B2, “Method of crystallization of bicalutamide” (Sumitomo Chemical Company, Limited, priority 2004, dated 2009)
